Reference: PubChem BioAssay (NCI)
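How tested: cells in 96-well plates exposed to compound for 48 hours at five concentrations. TGI marks complete inhibition of growth.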

How the values were obtained:
Assay in all cases: growth of human tumour cells (NCI), 48 h
[1] = test system: 786-0 renal
[2] = test system: A498 renal
[3] = test system: A549 NSCLC
[4] = test system: ACHN renal
[5] = test system: BT-549 breast
[6] = test system: CAKI-1 renal
[7] = test system: COLO 205 colon
[8] = test system: DU-145 prostate
[9] = test system: HCC-2998 colon
[10] = test system: HCT-116 colon
[11] = test system: HCT-15 colon
[12] = test system: HOP-92 NSCLC
[13] = test system: HS 578T breast
[14] = test system: HT29 colon
[15] = test system: IGROV1 ovarian
[16] = test system: K-562 leukemia
[17] = test system: KM12 colon
[18] = test system: LOX IMVI melanoma
[19] = test system: MALME-3M melanoma
[20] = test system: MDA-MB-231 breast
[21] = test system: MDA-MB-435
[22] = test system: MDA-N
[23] = test system: NCI-H226 lung
[24] = test system: NCI-H23 lung
[25] = test system: NCI-H460 lung
[26] = test system: NCI-H522 lung
[27] = test system: NCI/ADR-RES ovarian
[28] = test system: OVCAR-4 ovarian
[29] = test system: OVCAR-8 ovarian
[30] = test system: PC-3 prostate
[31] = test system: RPMI-8226 leukemia
[32] = test system: SF-268 CNS
[33] = test system: SK-MEL-2 melanoma
[34] = test system: SK-MEL-28 melanoma
[35] = test system: SK-MEL-5 melanoma
[36] = test system: SN12C renal
[37] = test system: SNB-19 CNS
[38] = test system: SNB-75 CNS
[39] = test system: SW-620 colon
[40] = test system: T-47D breast
[41] = test system: TK-10 renal
[42] = test system: U251 CNS
[43] = test system: UACC-257 melanoma
[44] = test system: UACC-62 melanoma
[45] = test system: UO-31 renal
[46] = test system: EKVX NSCLC
[47] = test system: HOP-62 NSCLC
[48] = test system: M14 melanoma
[49] = test system: MCF7 breast
[50] = test system: MOLT-4 leukemia
[51] = test system: OVCAR-3 ovarian
[52] = test system: OVCAR-5 ovarian
[53] = test system: RXF 393 renal
[54] = test system: SF-295 CNS
[55] = test system: SF-539 CNS
[56] = test system: SK-OV-3 ovarian

Cc1ccc(-c2c(C#N)c(N)nc3c2CCS(=O)(=O)c2ccccc2-3)cc1
TGI [1]: > 100 µM
TGI [2]: > 100 µM
TGI [3]: > 100 µM
TGI [4]: > 100 µM
TGI [5]: > 100 µM
TGI [6]: > 100 µM
TGI [7]: > 100 µM
TGI [8]: > 100 µM
TGI [9]: > 100 µM
TGI [10]: > 100 µM
TGI [11]: > 100 µM
TGI [12]: > 100 µM
TGI [13]: > 100 µM
TGI [14]: > 100 µM
TGI [15]: > 100 µM
TGI [16]: > 100 µM
TGI [17]: > 100 µM
TGI [18]: > 100 µM
TGI [19]: > 100 µM
TGI [20]: > 100 µM
TGI [21]: > 100 µM
TGI [22]: > 100 µM
TGI [23]: > 100 µM
TGI [24]: > 100 µM
TGI [25]: > 100 µM
TGI [26]: > 100 µM
TGI [27]: > 100 µM
TGI [28]: > 100 µM
TGI [29]: > 100 µM
TGI [30]: > 100 µM
TGI [31]: > 100 µM
TGI [32]: > 100 µM
TGI [33]: > 100 µM
TGI [34]: > 100 µM
TGI [35]: > 100 µM
TGI [36]: > 100 µM
TGI [37]: > 100 µM
TGI [38]: 78.9 µM
TGI [39]: > 100 µM
TGI [40]: > 100 µM
TGI [41]: > 100 µM
TGI [42]: > 100 µM
TGI [43]: > 100 µM
TGI [44]: > 100 µM
TGI [45]: > 100 µM

C=CCCCC1CCCNC1=S (configuration not stated)
TGI [1]: > 100 µM
TGI [2]: > 100 µM
TGI [3]: > 100 µM
TGI [4]: > 100 µM
TGI [5]: > 100 µM
TGI [6]: > 100 µM
TGI [8]: > 100 µM
TGI [46]: > 100 µM
TGI [9]: > 100 µM
TGI [10]: > 100 µM
TGI [11]: > 100 µM
TGI [47]: > 100 µM
TGI [12]: > 100 µM
TGI [13]: > 100 µM
TGI [14]: > 100 µM
TGI [15]: > 100 µM
TGI [16]: > 100 µM
TGI [17]: > 100 µM
TGI [48]: > 100 µM
TGI [49]: > 100 µM
TGI [20]: > 100 µM
TGI [21]: > 100 µM
TGI [22]: > 100 µM
TGI [50]: > 100 µM
TGI [23]: > 100 µM
TGI [24]: > 100 µM
TGI [25]: > 100 µM
TGI [26]: > 100 µM
TGI [51]: > 100 µM
TGI [28]: > 100 µM
TGI [52]: > 100 µM
TGI [29]: > 100 µM
TGI [30]: > 100 µM
TGI [31]: > 100 µM
TGI [53]: > 100 µM
TGI [32]: > 100 µM
TGI [54]: > 100 µM
TGI [55]: > 100 µM
TGI [33]: > 100 µM
TGI [34]: > 100 µM
TGI [35]: > 100 µM
TGI [56]: > 100 µM
TGI [36]: > 100 µM
TGI [37]: > 100 µM
TGI [38]: > 100 µM
TGI [39]: > 100 µM
TGI [40]: > 100 µM
TGI [41]: > 100 µM
TGI [42]: > 100 µM
TGI [43]: > 100 µM
TGI [44]: > 100 µM
TGI [45]: > 100 µM
